“Also recorded” adds a separate entry of the source.
Experiments:
p57 (KIP2) [1] = assay: Western blot of p57 in SCC25 oral carcinoma cells; type: cell-based, human; settings: 50 μM EGCG or 0.2 mg/ml GTPPs, 24 h
Method: Western blot analysis. Cells from different treatment groups were lysed in RIPA buffer (1% NP-40, 1% sodium deoxycholate, 0.1% SDS, 0.15 M NaCl, 0.01 M sodium phosphate, pH 7.2, and 1% Trasylol) containing proteinase inhibitors (1 mM PMSF, 1 μg/ml each of aprotinin, leupeptin, and pepstatin). The concentration of protein in each sample was determined using the BioRad DC Protein Assay and spectrophotometry. Fifty micrograms (μg) of protein from each sample and a BioRad molecular weight standard marker were run on a 10% SDS-PAGE, followed by transfer to nitrocellulose membranes. […]

p57 (KIP2) [2] = type: cell-based, human
Method: Cell treatments. For 24 hours treatments, exponentially growing cells with 40% confluency (to minimize differentiation and spontaneous apoptosis) were either maintained in 50 μM EGCG (2.29 mg/100 ml) or 0.2 mg/ml of GTPPs in tissue culture flasks (25 cm^2). Control flasks contained cells without any treatment. To test whether BaP or NNK interfere with the induction of p57, the human keratinocytes were treated with 0.12 μM BaP, or 10 μM NNK, either alone or in combination with 50 μM EGCG. To examine the time course of p57 induction, cells were treated with 50 μM EGCG and harvested for Western analysis at 30 minutes, 2 hours, 6 hours, and 24 hours. The human keratinocytes were treated when the cell density reached 85-90% confluency (to mimic the epithelium).
In a parallel series of experiments, treatment with EGCG was performed with 30 micrograms per milliliter (μg/ml) cycloheximide added to the keratinocyte media 30 minutes prior to the addition of EGCG. The dose-response experiments were performed using EGCG concentrations at 30, 50 100, and 200 μM in the culture media for 24 hours.
Western blot analysis. Cells from different treatment groups were lysed in RIPA buffer (1% NP-40, 1% sodium deoxycholate, 0.1% SDS, 0.15 M NaCl, 0.01 M sodium phosphate, pH 7.2, and 1% Trasylol) containing proteinase inhibitors (1 mM PMSF, 1 μg/ml each of aprotinin, leupeptin, and pepstatin). The concentration of protein in each sample was determined using the BioRad DC Protein Assay and spectrophotometry. Fifty micrograms (μg) of protein from each sample and a BioRad molecular weight standard marker were run on a 10% SDS-PAGE, followed by transfer to nitrocellulose membranes. Nonspecific binding to membranes was blocked with 10% nonfat milk. Specific primary polyclonal (rabbit) antibody against p57 and a horse radish peroxidase-conjugated goat anti-rabbit secondary antibody were used in conjunction with the ECL Chemiluminescence Kit and membranes were exposed to radiographic films for detection.

OSC2 cells = assay: Cell growth assay, OSC2 cells; type: cell-based, human; settings: 50 μM EGCG, day four
Method: Cell growth assay. Cells (2×10^5) were seeded in each T25 culture flask with 5 ml DMEM/F12 medium for 48 hours. The treatments were started with 50 μM EGCG for 24 hours, 48 hours and 96 hours. At each time point, the cell numbers were counted using a hemacytometer with the presence of Trypan blue.

MCF7 (C) cells = assay: Morphological analysis, MCF7(C) cells; type: cell-based, human; settings: EGCG, 48 hours
Text: Cell lines and cell culture. The normal human keratinocytes (NHEK CC-2507) were purchased from Cambrex (East Rutherford, N.J.) and maintained in KGM-2 medium (Cambrex). The OSC2 cell line was previously described (Osaki et al., Eur J Cancer B Oral Oncol 1994; 30 B:296-301). The breast carcinoma MCF7 cell line was purchased from American Type Culture Collection. The MCF7(C) caspase+cell line “7-3-28 ” was established and tested as previously described (Janicke et al., J Biol Chem 1998; 273:9357-60, Blanc et al., Cancer Res 2000; 60:4386-90). These tumor cells were maintained in 45% Dulbecco's Modified Eagle's Medium (DMEM), 45% Ham's F12 medium and 10% fetal calf serum, 100 I.U/ml penicillin, 100 μg/ml streptomycin and 5 μg/ml hydrocortisone. All cell cultures were maintained in a 37° C. incubator with 5% CO2. Light microscopic photographs were taken with a SPOT RT digital camera system (Diagnostic Instruments) linked to a Nikon Phase Contrast-2 microscope at an original magnification of 200×.

p21 = assay: Immunoblot of p21 protein in NHEK; type: cell-based, human; settings: EGCG 100 μM or higher, beyond 24 hours
Method: To identify additional factors those suppress EGCG -induced apoptosis and facilitate cell differentiation in NHEK, exponentially growing NHEK (Cambrex, Baltimore, Md.) were exposed to 100 μM EGCG for 0, 2, 6 and 24 hours, prior to total RNA isolation using the Qiagen RNeasy mini kit (Valencia, Calif.), which was followed by RT-PCR labeling and hybridization with the Human Apoptosis Macroarray membrane (Sigma-Genosys, The Woodlands, Tex.). Total cell lysates also were collected following a variety of EGCG treatments. The protein levels for caspase 14 and p21 were determined by immuno-blotting using antibodies specific for caspase 14 and p21 (Santa Cruz Biotechnology, Santa Cruz, Calif.).

[3] = test system: normal human primary epidermal keratinocytes; assay: BrdU incorporation assay, exponentially growing keratinocytes; type: cell-based; settings: increasing EGCG or 0.2 mg/ml GTP
Text: Analysis of DNA synthesis using the BrdU incorporation method. The BrdU cell proliferation kit was purchased from Oncogene Research Products (Boston, Mass.). […] Experiments were repeated three times in triplicate for each experiment.

caspase 3 = assay: Caspase 3 activity assay, normal human epidermal keratinocytes; type: cell-based; settings: EGCG 0 to 200 μM or 0.2 mg/ml GTPPs, 24 h
Method: (§1) Caspase 3 activity assay. The Caspase 3 Apoptosis Detection Kit was purchased from Santa Cruz Biotech. Inc. In a 24 well tissue culture plate, 10^5 cells/well of control or treated cells in triplicates were plated. […] To each well, 100 μl of 2×reaction buffer was added with 10 mM DTT. Finally, 5 μl of DEVD-AFC substrate was added to each well containing cell lysates. The reaction mixtures were incubated for 1 hour at 37° C. The caspase 3 activity in each well was measured using a fluorescence plate reader set for 405 nanometer (nm) excitation and 505 nm emission.
as §1, with “of” for “of control or treated”, “[…]” for “10 mM”, “fluorescence microplate” for “fluorescence plate”, “405 nm” for “405 nanometer (nm)”
Caspase 3 activity assay. […] The reaction mixtures were incubated for 1 hour at 37° C., and caspase 3 activity in each well was measured using a fluorescence micro-plate reader at a wavelength of 405 nm for excitation and 505 nm for emission.

Q: `O=C(O[C@@H]1Cc2c(O)cc(O)cc2O[C@@H]1c1cc(O)c(O)c(O)c1)c1cc(O)c(O)c(O)c1` [EGCG, (−)-epigallocatechin-3-gallate] was tested. Which p57 levels (p57 (KIP2) [1]) did it give?
A: remained unchanged

Q: And the p57 protein accumulation (p57 (KIP2) [2]; 50 μM EGCG or 0.2 mg/ml GTPPs, 24 h, 40% confluency)?
A: accumulated in normal human epithelial cells

Q: What about the “EGCG-stimulated p57 protein accumulation when BaP and NNK were present” value (p57 (KIP2) [2]; 50 μM EGCG with 0.12 μM BaP or 10 μM NNK) of the same compound?
A: still occurred

Q: And the “time of peak p57 expression” value (p57 (KIP2) [2]; 50 μM EGCG, cell density 90%)?
A: 6 h

Q: What about the “p57 levels over 24 hours” value (p57 (KIP2) [2]; 100 μM or 200 μM EGCG, 90% confluency) of the same compound?
A: remained high throughout the 24 hours period

Q: What about the “cell number compared to controls” value (OSC2 cells) of the same compound?
A: 50%

Q: And the morphology (MCF7 (C) cells)?
A: significantly reduced the cell number and produced cell blebbing

Q: What about the “p21 protein level, of controls” value (p21) of the same compound?
A: below 50%

Q: What about the BrdU incorporation [3] of the same compound?
A: slight increase of BrdU incorporation

Q: What about the “caspase 3 activity” value (caspase 3) of the same compound?
A: only exhibited basal levels of caspase 3 activities; also recorded: not significantly affected

From US20040191842A1, “Chemopreventive and therapeutic aspects of polyphenolic compositions and assays” (Medical College of Georgia Research Institute, Inc., priority 2002, published 2004)
